Five compounds from patent publication US10647699B2, “Substituted 2-oxyimidazolylcarboxamides as pesticides” (Bayer CropScience Aktiengesellschaft, priority 2016, dated 2020) can be followed below.

Series [1] can be described thus: log P by HPLC on reversed-phase columns (OECD Guideline 117), neutral range. Type of series: physicochemical.
Series [2] has as its system Myzus persicae. As to the kind of experiment: Myzus persicae spray test on bell pepper plants. The class given is in vivo. Particulars: after 6 days, application rate 20 ppm. The procedure:
Myzus persicae-Spray Test
(§1) Solvent: 14 parts by weight of dimethylformamide
(§2) Emulsifier: alkylaryl polyglycol ether
(§3) To produce a suitable preparation of active compound, 1 part by weight of active compound is dissolved using the specified parts by weight of solvent and made up with water containing an emulsifier concentration of 1000 ppm until the desired concentration is attained. To produce further test concentrations, the formulation is diluted with emulsifier-containing water. If the addition of ammonium salts or/and penetrants is required, these are each added in a concentration of 1000 ppm to the formulation solution.
Bell pepper plants (Capsicum annuum) severely infested with the green peach aphid (Myzus persicae) are treated by spraying with the active compound formulation in the desired concentration.
After 6 days, the kill in % is determined. 100% means that all of the aphids have been killed; 0% means that none of the aphids have been killed.

For a further series, the system named is Aphis gossypii. As to the kind of experiment: Aphis gossypii spray test on cotton plants. Type of series: in vivo. Particulars: after 6 days, application rate 20 ppm, cotton plants. How it is done:
Aphis gossypii—Spray Test
as §1, §2, §3
Cotton plants (Gossypium hirsutum) which are heavily infested by the cotton aphid (Aphis gossypii) are sprayed with an active compound formulation of the desired concentration.
After 6 days, the kill in % is determined. 100% means that all the aphids have been killed; 0% means that no aphids have been killed.

Series [3] has as its system Myzus persicae. As to the kind of experiment: Myzus persicae oral test (MYZUPE O). Type of series: in vivo.
Series [4] concerns Myzus persicae. As to the kind of experiment: Myzus persicae spray test (MYZUPE), Chinese cabbage leaf discs. Type of series: in vivo. Conditions: after 5 days, application rate 500 g/ha.
The subject of another series is Boophilus microplus. In words: Boophilus microplus injection test. Type of series: in vivo. Conditions: 20 μg/animal, assessed after 7 days. How it is done:
Boophilus microplus—Injection Test Solvent: dimethyl sulphoxide To produce a suitable preparation of active compound, 10 mg of active compound are mixed with 0.5 ml of solvent and the concentrate is diluted with solvent to the desired concentration. […] The animals are transferred into dishes and kept in a climate-controlled room. Efficacy is assessed after 7 days by laying of fertile eggs. Eggs which are not visibly fertile are stored in a climate-controlled cabinet until the larvae hatch after about 42 days.

For another series, the system named is Tetranychus urticae. In words: Tetranychus urticae spray test, OP-resistant, bean leaf discs. The class given is in vivo. Conditions: after 6 days, application rate 500 g/ha. The procedure: Tetranychus urticae—Spray Test, OP-Resistant
To produce a suitable preparation of active compound, 1 part by weight of active compound is dissolved using the specified parts by weight of solvent and made up with water containing an emulsifier concentration of 1000 ppm until the desired concentration is attained. To produce further test concentrations, the formulation is diluted with emulsifier-containing water.
Discs of bean leaves (Phaseolus vulgaris) infested with all stages of the greenhouse red spider mite (Tetranychus urticae) are sprayed with an active compound formulation of the desired concentration.
After 6 days, the efficacy in % is determined. 100% means that all the spider mites have been killed; 0% means that no spider mites have been killed.

Where [5] appears, read: after 5 days, application rate 20 ppm.

For `CN(C(=O)c1cnc(Oc2ccc(F)cc2)n1C)c1cccnc1` [Example II-19], in series [1] (HPLC, neutral range pH 7.8), the LogP-neutral amounted to 1.76. Also, the “efficacy (kill)” value was determined as 95% with Myzus persicae [2] and 100% in the series with Aphis gossypii. The compound further returned an efficacy in the series with Myzus persicae [3] (setting [5]) of 100%.

Regarding `CN(C(=O)c1cnc(Oc2ccc(F)nc2)n1C)c1cccnc1` [Example II-40], the LogP-neutral in series [1] (HPLC, neutral range pH 7.8) turned out to be 1.33. Also, the efficacy in the series on Myzus persicae [4] and in the series on Myzus persicae [3] (setting [5]) was 100% throughout. For the same compound, the “efficacy (kill)” value with Aphis gossypii is 100%. Further, the “efficacy (no fertile eggs laid)” value with Boophilus microplus was 80%.

In the case of `CC(C)Oc1ncc(C(=O)N(C)c2cccnc2)n1C` [Example II-1], the chromatographic logP in series [1] (reversed-phase (C18) HPLC column, HPLC, neutral range pH 7.8, read-out: LogP-neutral) was 1.47. Besides, the “efficacy (kill)” value in the series on Myzus persicae [2] stood at 100%. For the same compound, the pest or weed control at 20 ppm with Aphis gossypii (Aphis gossypii, 144 h, read-out: efficacy (kill)) turned out to be 100%; with Myzus persicae [3] (Myzus persicae, po, 120 h, after 5 days, application rate 20 ppm, read-out: efficacy) it was 100%. In addition, in the series on Myzus persicae [3] (Myzus persicae, po, 120 h, MYZUPE O, 0.8 ppm, 5 dat, read-out: % efficacy), the Emax at 0.8 ppm stood at 90%. The Emax at 4 ppm with Myzus persicae [3] (Myzus persicae, po, 120 h, MYZUPE O, 4 ppm, 5 dat, read-out: % efficacy) was found to be 100%. The “efficacy (no fertile eggs laid)” value in the series on Boophilus microplus amounted to 100%.

For `C=CCOc1ncc(C(=O)N(C)c2cccnc2)n1C` [Example II-37], the LogP-neutral in series [1] (pH 7.8) is reported as 1.38. Moreover, the efficacy in the series on Myzus persicae [4] turned out to be 100%; in the series with Tetranychus urticae, 90%; with Myzus persicae [3] (setting [5]), 100%. For the same compound, the “efficacy (kill)” value in the series on Aphis gossypii is on record as 100%.

As to `CN(C(=O)c1cnc(Oc2ccc(Oc3ccc(Cl)nc3)nc2)n1C)c1cccnc1` [Example II-45], the “efficacy (kill)” value stood at 98% in the series on Myzus persicae [2] and 99% in the series with Aphis gossypii. In addition, in the series with Myzus persicae [3] (setting [5]), the efficacy came out at 100%.
